# Reference: patent US4336243A, “Transdermal nitroglycerin pad” (G. D. Searle & Co., priority 1981, dated 1982)
# Legend:
# [1] = Percutaneous absorption of C^14 nitroglycerin, neat liquid application (urinary radioactivity); format: in vivo, rhesus monkey (Macaca mulata); details: for Percent Dose Absorbed (Mean + SEM): neat liquid
# Description: Studies to determine the topical availability of nitroglycerin were carried out in vivo with the rhesus monkey (Macaca mulata).
# The animals were placed in metabolism chairs for the length of time of the dose application. Urine was collected while the animals were still in the metabolism chairs. After the dose was removed, the animals were moved to a metabolism cage for continued urine collection.
# Nitroglycerin, labeled with carbon-14, was applied to the skin. The site of application can be any part of the body; however, the ventral forearm or upper part of the inner arm was used for convenience. The area of application is generally small, i.e., 2-10 cm^2; however, any area can be used. The final concentration is expressed as an amount per unit area of skin (i.e. 1.0 mg/1 cm^2).
# In the case of liquid, cream or ointment formulations, the dose was spread over the exact skin area. In the case of the pads of the present invention, they were taped to the skin. In the case of liquids, cream or ointments, the treated area was covered with aluminum foil and tape. In all cases, the tape and foil and where applicable the nitroglycerin pads were removed after 24 hours and the site of application was wiped three times with gauze soaked with ethanol, then washed with soap and water.
# Absorption is quantified on the basis of the percent of radioactivity excreted in urine for 3 days following application of a known amount of the labeled nitroglycerin to the skin. Daily urinary excretion values are collected for excretion of radioactivity by other routes and retention of radioactivity in the body by the administration of an intravenous dose of C^14 -labeled nitroglycerin according to the following formula: [formula]
# In the case of C^14 -labeled nitroglycerin applied via the nitroglycerin pad of the present invention, the device can be removed from the skin and analyzed for residual radioactivity. The amount of radioactivity which has been removed from the device, by comparative assays with devices not applid to skin, is considered to have been released in vivo during the time of skin application. Analysis for radioactivity can be conducted using any commercially available liquid scintillation counter. To determine the amount of radioactivity in this study, 1.0 ml of radioactive urine was mixed with scintillation fluid (10 ml of PCS solubilizer, Amersham Corporation, Arlington Heights, Ill.). The urine mixed with scintillant is counted for radioactivity in a liquid scintillation counter and the amount of radioactivity determined.
# [2] = Effect of added hydrophobic solvents on nitroglycerin transport and delivery; details: miglyol oil 812 and isopropyl palmitate alone, or with mineral oil, added to the hydrophilic solvent system in the polymer matrix
compound,measurement,setting,value
"O=[N+]([O-])OCC(CO[N+](=O)[O-])O[N+](=O)[O-] [C^14 Nitroglycerin, nitroglycerin]",Percent Dose Absorbed (Mean + SEM),"[1]; topical concentration 0.01 mg/cm^2, 24 hours",41.8 ± 3.2%
same,Percent Dose Absorbed (Mean + SEM),"[1]; topical concentration 0.1 mg/cm^2, 24 hours",43.5 ± 3.3%
same,Percent Dose Absorbed (Mean + SEM),"[1]; topical concentration 1.0 mg/cm^2, 24 hours",36.6 ± 3.7%
same,Percent Dose Absorbed (Mean + SEM),"[1]; topical concentration 7.0 mg/cm^2, 24 hours",22.6 ± 4.2%
same,Percent Dose Absorbed (Mean + SEM),"[1]; topical concentration 10.0 mg/cm^2, 24 hours",7.8 ± 0.7%
same,absorption,[1]; topical concentrations of 7 and 10 mg/cm^2,decreased absorption
same,maximum optimum dosage for good bioavailability,"[1]; topical, neat nitroglycerin",5 mg/cm^2
same,drug delivery,[2],increased
same,drug transport,[2],greatly enhanced
